Source: ChEMBL document CHEMBL1201862, “PubChem BioAssay data set” (2004)
Calls of active or inactive are those of the source.

Assays:
[1] = target: 72 kDa type IV collagenase (Homo sapiens, UniProt P08253); test: Dose Response validation of uHTS RPN11 inhibitor hits using a MMP-2 Fluorescence assay.; type: functional
[2] = target: 26S proteasome non-ATPase regulatory subunit 14 (Homo sapiens, UniProt O00487); test: inhibition of proteasome subunit RPN11 – biochemical, fluorescence polarization, uHTS hits, confirmation (AID 602368); type: functional
Chain of 26S proteasome non-ATPase regulatory subunit 14 (O00487 whole entry): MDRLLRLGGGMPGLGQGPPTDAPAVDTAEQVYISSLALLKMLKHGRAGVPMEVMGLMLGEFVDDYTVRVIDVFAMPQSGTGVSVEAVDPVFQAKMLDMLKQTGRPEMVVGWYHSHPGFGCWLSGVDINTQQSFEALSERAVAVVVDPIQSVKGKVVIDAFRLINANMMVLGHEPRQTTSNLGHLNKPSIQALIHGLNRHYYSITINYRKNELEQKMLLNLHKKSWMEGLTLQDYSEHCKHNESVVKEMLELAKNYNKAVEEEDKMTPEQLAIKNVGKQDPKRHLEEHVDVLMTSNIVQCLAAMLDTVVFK

Prothrombin = Prothrombin (Bos taurus, UniProt P00735); test: thrombin inhibition, dose response, biochemical, fluorescence polarization, uHTS hits (AID 602369); type: functional
[3] = target: T1, E3 ubiquitin-protein ligase XIAP (Homo sapiens, UniProt P98170); test: XIAP antagonists, biochemical, IAP family, fluorescence polarization (AID 1018); type: functional
T1 sequence (P98170 whole entry): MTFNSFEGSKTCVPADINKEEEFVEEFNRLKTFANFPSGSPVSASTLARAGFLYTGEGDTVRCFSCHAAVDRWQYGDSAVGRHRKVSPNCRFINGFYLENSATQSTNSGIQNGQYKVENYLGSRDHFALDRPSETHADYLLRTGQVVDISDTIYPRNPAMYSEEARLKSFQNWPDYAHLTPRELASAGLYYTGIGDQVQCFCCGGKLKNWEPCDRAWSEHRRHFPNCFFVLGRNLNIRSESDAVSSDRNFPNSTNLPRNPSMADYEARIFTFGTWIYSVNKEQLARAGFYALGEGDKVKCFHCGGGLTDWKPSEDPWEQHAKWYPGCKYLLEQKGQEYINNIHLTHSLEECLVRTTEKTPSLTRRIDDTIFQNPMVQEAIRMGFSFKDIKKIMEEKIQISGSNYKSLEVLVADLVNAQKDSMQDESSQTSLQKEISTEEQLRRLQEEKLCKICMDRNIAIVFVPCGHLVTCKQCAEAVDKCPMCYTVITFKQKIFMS

[4] = inhibitors of intracellular T. cruzi replication, confirmation, NIH3T3 host cells, beta-gal luminescence (AID 2044); type: functional, cell-based;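 note: intracellular parasites grown in NIH/3T3 mouse fibroblasts as host cells; luminescent beta-galactosidase reporter signal from transgenic T. cruzi replicating inside host cells; inhibitors lower the luminescence signal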
[5] = target: T1, E3 ubiquitin-protein ligase XIAP; test: Counter Screen using XIAP-Bir3 for Chemical Antagonists of Bir1/2 domains of IAP-family anti-apoptotic proteins. [Related pubchem assays (depositor defined):AID1018, AID1449, AID1514, AID1638, AID1749, AID1750, AID488957, AID488963]
[6] = cytotoxicity toward NIH3T3 fibroblasts, dose response, counter-screen, cell-based, ATP luminescence, mouse fibroblasts (AID 2010); type: functional;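 note: cells exposed to compound for about 90 hours before reading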
Coagulation factor XII = target: T2, Coagulation factor XII (Homo sapiens, UniProt P00748); type: functional;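 note: activated factor XIIa alpha cleaving a fluorogenic AMC peptide substrate; inhibitor potency from loss of enzyme activity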
T2 sequence (P00748 whole entry): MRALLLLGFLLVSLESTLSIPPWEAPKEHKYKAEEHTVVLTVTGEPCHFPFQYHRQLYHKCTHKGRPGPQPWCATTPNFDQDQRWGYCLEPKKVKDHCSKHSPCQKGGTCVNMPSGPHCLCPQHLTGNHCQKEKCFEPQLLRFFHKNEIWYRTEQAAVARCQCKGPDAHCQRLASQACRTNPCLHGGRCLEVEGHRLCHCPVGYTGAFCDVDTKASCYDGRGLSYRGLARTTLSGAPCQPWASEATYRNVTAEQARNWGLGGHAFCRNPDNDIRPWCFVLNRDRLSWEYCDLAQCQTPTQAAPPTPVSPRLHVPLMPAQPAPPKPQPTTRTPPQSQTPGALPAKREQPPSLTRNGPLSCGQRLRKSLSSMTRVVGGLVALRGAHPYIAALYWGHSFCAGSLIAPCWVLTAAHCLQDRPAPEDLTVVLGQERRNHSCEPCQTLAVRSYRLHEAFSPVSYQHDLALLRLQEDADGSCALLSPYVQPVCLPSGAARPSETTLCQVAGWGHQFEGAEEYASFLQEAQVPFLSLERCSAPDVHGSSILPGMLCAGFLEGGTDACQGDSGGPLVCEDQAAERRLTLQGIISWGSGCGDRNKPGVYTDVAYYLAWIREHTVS

[7] = target: DNA (cytosine-5)-methyltransferase 1 (Homo sapiens, UniProt P26358); test: DNMT1 methyltransferase inhibitors, confirmation, biochemical, fluorescent molecular beacon (AID 602386); type: functional
Chain of DNA (cytosine-5)-methyltransferase 1 (P26358 whole entry): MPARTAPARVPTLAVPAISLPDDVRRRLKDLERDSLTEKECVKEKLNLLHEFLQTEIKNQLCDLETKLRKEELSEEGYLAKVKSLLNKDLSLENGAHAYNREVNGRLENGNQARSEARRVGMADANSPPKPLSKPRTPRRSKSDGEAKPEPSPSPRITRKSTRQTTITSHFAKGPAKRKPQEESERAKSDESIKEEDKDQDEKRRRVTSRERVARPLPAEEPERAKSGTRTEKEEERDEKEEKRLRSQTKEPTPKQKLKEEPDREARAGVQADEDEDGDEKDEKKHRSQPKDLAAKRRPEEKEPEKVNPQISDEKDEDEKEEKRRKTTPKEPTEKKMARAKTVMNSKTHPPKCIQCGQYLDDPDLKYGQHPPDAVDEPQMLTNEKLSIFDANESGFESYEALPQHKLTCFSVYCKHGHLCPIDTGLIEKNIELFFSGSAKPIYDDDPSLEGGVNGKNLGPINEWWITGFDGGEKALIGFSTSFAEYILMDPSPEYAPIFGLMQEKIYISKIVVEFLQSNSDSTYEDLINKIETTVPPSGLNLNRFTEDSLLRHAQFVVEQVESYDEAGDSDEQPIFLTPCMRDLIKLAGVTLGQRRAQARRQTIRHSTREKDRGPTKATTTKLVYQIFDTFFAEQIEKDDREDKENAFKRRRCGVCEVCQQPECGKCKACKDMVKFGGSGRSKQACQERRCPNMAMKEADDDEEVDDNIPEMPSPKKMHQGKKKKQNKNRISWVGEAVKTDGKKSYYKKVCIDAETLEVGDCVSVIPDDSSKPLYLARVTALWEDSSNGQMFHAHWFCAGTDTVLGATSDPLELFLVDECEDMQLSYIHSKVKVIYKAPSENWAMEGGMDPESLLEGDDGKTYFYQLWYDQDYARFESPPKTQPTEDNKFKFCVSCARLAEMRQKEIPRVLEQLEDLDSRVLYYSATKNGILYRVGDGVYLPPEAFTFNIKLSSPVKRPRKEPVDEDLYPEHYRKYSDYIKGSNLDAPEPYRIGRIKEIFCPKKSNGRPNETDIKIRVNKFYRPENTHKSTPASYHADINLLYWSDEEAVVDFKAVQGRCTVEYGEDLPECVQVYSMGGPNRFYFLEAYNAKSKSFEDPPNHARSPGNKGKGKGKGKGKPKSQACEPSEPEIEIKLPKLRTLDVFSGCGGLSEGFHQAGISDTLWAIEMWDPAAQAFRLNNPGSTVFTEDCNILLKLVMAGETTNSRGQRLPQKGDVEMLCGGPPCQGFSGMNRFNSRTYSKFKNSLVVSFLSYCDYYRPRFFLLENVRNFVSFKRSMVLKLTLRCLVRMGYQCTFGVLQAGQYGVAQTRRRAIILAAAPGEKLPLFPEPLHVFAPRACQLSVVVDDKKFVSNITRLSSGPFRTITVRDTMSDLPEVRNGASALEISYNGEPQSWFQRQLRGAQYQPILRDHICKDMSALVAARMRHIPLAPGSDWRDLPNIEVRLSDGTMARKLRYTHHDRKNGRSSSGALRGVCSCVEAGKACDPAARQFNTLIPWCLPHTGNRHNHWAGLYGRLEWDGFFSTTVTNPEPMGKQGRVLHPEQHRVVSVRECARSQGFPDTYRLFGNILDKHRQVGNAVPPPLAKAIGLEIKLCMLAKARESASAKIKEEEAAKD

SN12K1 = test: cells; type: functional; conditions: Homo sapiens
P388/ADR = test: cells; type: functional; conditions: Mus musculus
P388 = test: cells; type: functional; conditions: Mus musculus
Cytochrome P450 3A4 = Cytochrome P450 3A4 (Homo sapiens, UniProt P08684);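 note: CYP3A4 tested as one member of a cytochrome P450 panel screen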
Chain of Cytochrome P450 3A4 (P08684 whole entry): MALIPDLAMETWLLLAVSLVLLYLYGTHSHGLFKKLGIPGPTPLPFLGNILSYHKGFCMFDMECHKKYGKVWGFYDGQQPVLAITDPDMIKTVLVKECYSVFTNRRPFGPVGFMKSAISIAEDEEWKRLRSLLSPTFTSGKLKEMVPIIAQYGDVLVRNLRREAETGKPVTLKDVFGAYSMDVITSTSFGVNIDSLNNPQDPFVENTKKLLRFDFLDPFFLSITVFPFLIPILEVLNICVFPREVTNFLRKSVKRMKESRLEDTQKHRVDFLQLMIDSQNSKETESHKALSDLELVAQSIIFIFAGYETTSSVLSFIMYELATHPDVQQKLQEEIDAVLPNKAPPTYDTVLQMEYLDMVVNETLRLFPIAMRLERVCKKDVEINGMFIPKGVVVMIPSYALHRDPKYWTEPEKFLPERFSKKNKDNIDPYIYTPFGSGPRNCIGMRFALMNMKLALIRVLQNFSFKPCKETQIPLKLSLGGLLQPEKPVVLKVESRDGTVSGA

Cytochrome P450 2C19 = Cytochrome P450 2C19 (Homo sapiens, UniProt P33261); test: Cytochrome panel assay with activity outcomes. Panel member name: p450-cyp2c19 Compounds with AC50 equal or less than 10 uM are considered active; type: functional; conditions: read-out: AC50
Chain of Cytochrome P450 2C19 (P33261 whole entry): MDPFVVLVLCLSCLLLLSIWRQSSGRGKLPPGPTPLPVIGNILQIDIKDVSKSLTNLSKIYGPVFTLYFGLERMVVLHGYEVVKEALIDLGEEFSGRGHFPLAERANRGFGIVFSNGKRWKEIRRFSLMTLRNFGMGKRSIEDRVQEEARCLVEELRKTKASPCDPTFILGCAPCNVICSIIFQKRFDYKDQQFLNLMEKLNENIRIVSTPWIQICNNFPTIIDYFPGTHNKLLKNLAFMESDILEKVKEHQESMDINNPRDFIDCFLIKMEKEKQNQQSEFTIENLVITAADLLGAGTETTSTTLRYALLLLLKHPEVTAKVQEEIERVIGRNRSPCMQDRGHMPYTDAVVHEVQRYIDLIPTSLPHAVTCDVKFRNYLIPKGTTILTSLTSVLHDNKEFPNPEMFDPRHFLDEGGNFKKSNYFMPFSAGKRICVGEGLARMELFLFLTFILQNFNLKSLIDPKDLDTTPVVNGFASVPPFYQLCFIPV

INS1 = test: beta cell apoptosis inhibitors, cytokine rescue, dose response, luminescence, retest (AID 449756); type: functional, cell-based; conditions: Rattus norvegicus;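 note: cell death triggered by IL-1 beta plus TNF-alpha plus IFN-gamma mixture; protective hits raise ATP signal compared with cytokine alone wells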
BJ [8] = test: cytotoxicity toward BJ-TERT fibroblasts, dose response, cell-based, RAS-independent, luminescence (AID 1933); type: functional; conditions: Homo sapiens
BJ [9] = test: cytotoxicity toward Ras-transformed BJeLR fibroblasts, dose response, cell-based, alamar blue fluorescence, cherrypicked samples (AID 2631); type: functional; conditions: Homo sapiens;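 note: confirmatory dose-response assay in RAS-dependent BJ fibroblasts engineered with TERT, LT and ST, with cytotoxicity read by fluorescence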
BJ [10] = test: cells; type: functional, cell-based; conditions: Homo sapiens
[11] = cytotoxicity toward DRD oncogenic fibroblasts, dose response, cell-based, non-viral oncogenic, luminescence (AID 1934); type: functional; conditions: Homo sapiens
BJ [12] = test: cytotoxicity toward BJ-TERT-LT-ST fibroblasts, dose response, cell-based, RAS-independent, luminescence (AID 1935); type: functional; conditions: Homo sapiens;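 note: BJ fibroblasts immortalized with TERT plus LT and ST oncogenes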
Hexokinase = target: T3, Hexokinase (Trypanosoma brucei, UniProt Q38C41); test: Confirmation assay for inhibitors of Trypanosoma brucei hexokinase 1-Analogue-first series. [Related pubchem assays (depositor defined):AID1430, AID1632, AID2516, AID2560, AID2579, AID2600, AID449725, AID492951]; type: functional
T3 sequence (Q38C41 whole entry): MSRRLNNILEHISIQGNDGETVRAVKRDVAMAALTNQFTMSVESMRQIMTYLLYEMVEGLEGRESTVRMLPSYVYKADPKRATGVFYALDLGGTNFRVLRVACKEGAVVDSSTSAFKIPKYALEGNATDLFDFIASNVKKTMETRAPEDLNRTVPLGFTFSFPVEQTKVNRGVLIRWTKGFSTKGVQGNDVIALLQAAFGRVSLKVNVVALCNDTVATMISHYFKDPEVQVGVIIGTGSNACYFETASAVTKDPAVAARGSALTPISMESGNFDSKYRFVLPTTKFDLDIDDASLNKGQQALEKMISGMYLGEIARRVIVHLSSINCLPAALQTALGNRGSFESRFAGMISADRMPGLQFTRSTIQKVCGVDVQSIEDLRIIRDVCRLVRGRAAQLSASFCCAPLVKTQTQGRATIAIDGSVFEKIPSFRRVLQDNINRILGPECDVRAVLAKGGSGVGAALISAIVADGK

Chain of 72 kDa type IV collagenase (P08253 whole entry): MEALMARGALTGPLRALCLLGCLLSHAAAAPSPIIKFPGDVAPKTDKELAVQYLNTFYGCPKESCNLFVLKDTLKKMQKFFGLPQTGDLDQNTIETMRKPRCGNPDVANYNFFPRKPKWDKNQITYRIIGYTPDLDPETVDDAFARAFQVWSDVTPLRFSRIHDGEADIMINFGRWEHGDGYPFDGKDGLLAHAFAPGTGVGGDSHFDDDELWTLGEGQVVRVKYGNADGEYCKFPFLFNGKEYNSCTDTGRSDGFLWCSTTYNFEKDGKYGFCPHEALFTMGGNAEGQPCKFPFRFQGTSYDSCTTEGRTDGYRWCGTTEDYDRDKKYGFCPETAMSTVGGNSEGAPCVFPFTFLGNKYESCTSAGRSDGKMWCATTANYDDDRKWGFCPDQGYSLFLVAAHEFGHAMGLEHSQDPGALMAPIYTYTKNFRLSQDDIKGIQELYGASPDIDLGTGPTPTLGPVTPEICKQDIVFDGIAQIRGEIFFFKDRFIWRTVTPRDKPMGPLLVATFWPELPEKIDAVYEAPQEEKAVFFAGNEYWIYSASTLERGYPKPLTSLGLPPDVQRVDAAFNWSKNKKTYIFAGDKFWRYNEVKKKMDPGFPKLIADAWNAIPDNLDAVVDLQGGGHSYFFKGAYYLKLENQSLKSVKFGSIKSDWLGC

## CCOC(=O)NC(=O)/C(C#N)=C/c1ccc(N(C)C)cc1
[1]
  IC50: > 100 µM (inactive)
[2]
  IC50: 14.7 µM (active)
Prothrombin
  IC50: 25.6 µM (active)

## CN(C)CCCn1c(-c2ccccc2)nc(=S)c2c1CCCC2
[3]
  IC50: > 100 µM (not active)
[4]
  EC50: 0.697 µM (active)
[5]
  IC50: > 100 µM (inactive)
[6]
  EC50: > 60 µM (not active)

## C=C(C)C(=O)Nc1cccc(C2=NOC3(C2)C[C@H](C(N)=O)N(C(=O)CC)C3)c1 (some centres undefined)
Coagulation factor XII
  IC50: > 50 µM (inactive)
[7]
  IC50: 4.32 µM (active)

## O=C(CCl)NC(Cc1ccc(F)cc1)C(=O)O (centres undefined)
SN12K1
  GI50: > 100 µM (inactive)
P388/ADR
  GI50: > 100 µM (inactive)
P388
  GI50: > 100 µM (inactive)

## CC(O)C(O)C(N)CC=O (centres undefined)
SN12K1
  GI50: > 500 µM (inactive)
P388/ADR
  GI50: > 500 µM (inactive)
P388
  GI50: > 500 µM (inactive)

## Cc1cc(C)cc(NC(=O)Nc2ccc3c(c2)N(C)C(=O)CS3)c1
[3]
  IC50: > 100 µM (not active)
[5]
  IC50: > 100 µM (inactive)

## O=C(C1CCN(S(=O)(=O)N2CCOCC2)CC1)N1CCN(Cc2ccccc2)CC1
Cytochrome P450 3A4
  AC50: inconclusive
Cytochrome P450 2C19
  AC50: 14.1 µM (inconclusive)

## Cc1c2ccnc(C(F)(F)F)c2cc2c1[nH]c1ccccc12
SN12K1
  GI50: 58.5 µM (inactive)
P388/ADR
  GI50: 78.9 µM (inactive)
P388
  GI50: > 125 µM (inactive)

## O=C(NCc1cccnc1)c1ccc(NC(=O)c2ccc([N+](=O)[O-])cc2)cc1
INS1
  AC50: < 0.195 µM (active)
BJ [8]
  EC50: > 150 µM (not active)
BJ [9]
  EC50: > 66.7 µM (inactive)
BJ [10]
  EC50: 15.9 µM (inconclusive)
[11]
  EC50: > 150 µM (not active)
BJ [12]
  EC50: > 150 µM (not active)

## O=C(Cn1sc2ccccc2c1=O)Nc1ccccc1Br
Hexokinase
  IC50: 4.66 µM (active)
